In ChEMBL document CHEMBL1148819, “Structure, derivatization, and antitumor activity of new griseusins from Nocardiopsis sp” (J Med Chem, 2007):

Assays:
[1] = Cytotoxicity against BXF1218L cells after 4 days by monolayer assay; assay type: functional, cell-based; conditions: Homo sapiens, BXF 1218L, 96 h
RXF 393 [2] = experiment: Cytotoxicity against RXF393NL cells after 4 days by monolayer assay; assay type: functional, cell-based; conditions: Homo sapiens, RXF 393NL, 96 h
[3] = Cytotoxicity against MEXF514L cells after 4 days by monolayer assay; assay type: functional, cell-based; conditions: Homo sapiens, MEXF 514L, 96 h
[4] = Cytotoxicity against RXF944L cells after 4 days by monolayer assay; assay type: functional, cell-based; conditions: Homo sapiens, RXF 944L, 96 h
[5] = Cytotoxicity against CXF1103 cells after 2 to 7 days by clonogenic assay; assay type: functional, cell-based; conditions: Homo sapiens
MDA-MB-468 = experiment: Cytotoxicity against MDA-MB-468 cells after 4 days by monolayer assay; assay type: functional, cell-based; conditions: Homo sapiens, MDA-MB-468, 96 h
MDA-MB-231 = experiment: Cytotoxicity against MDA-MB-231 cells after 4 days by monolayer assay; assay type: functional, cell-based; conditions: Homo sapiens, MDA-MB-231, 96 h
[6] = Cytotoxicity against MEXF394NL cells after 4 days by monolayer assay; assay type: functional, cell-based; conditions: Homo sapiens, MEXF 394NL, 96 h
[7] = Cytotoxicity against PRXF22Rv1 cells after 4 days by monolayer assay; assay type: functional, cell-based; conditions: Homo sapiens, 96 h
[8] = Cytotoxicity against MAXF1162 cells after 2 to 7 days by clonogenic assay; assay type: functional, cell-based; conditions: Homo sapiens
[9] = Cytotoxicity against MEXF535 cells after 2 to 7 days by clonogenic assay; assay type: functional, cell-based; conditions: Homo sapiens
[10] = Cytotoxicity against RXF944LX cells after 2 to 7 days by clonogenic assay; assay type: functional, cell-based; conditions: Homo sapiens, RXF 944LX
[11] = Cytotoxicity against human umbilical cord hematopoietic stem cells after 12 days by clonogenic assay; assay type: cell-based; conditions: 288 h
[12] = Cytotoxicity against CXF264 cells after 2 to 7 days by clonogenic assay; assay type: functional, cell-based; conditions: Homo sapiens
RXF 393 [13] = experiment: Cytotoxicity against RXF393 cells after 2 to 7 days by clonogenic assay; assay type: functional, cell-based; conditions: Homo sapiens
[14] = Cytotoxicity against MAXF583 cells after 2 to 7 days by clonogenic assay; assay type: functional, cell-based; conditions: Homo sapiens
CCRF-CEM = experiment: Cytotoxicity against CCRF-CEM cells after 2 to 7 days by clonogenic assay; assay type: functional, cell-based; conditions: Homo sapiens
MCF7 = experiment: Cytotoxicity against MCF7 cells after 4 days by monolayer assay; assay type: functional, cell-based; conditions: Homo sapiens, MCF7, 96 h
[15] = Cytotoxicity against MEXF462NL cells after 4 days by monolayer assay; assay type: functional, cell-based; conditions: Homo sapiens, MEXF 462NL, 96 h
[16] = Cytotoxicity against MEXF520L cells after 4 days by monolayer assay; assay type: functional, cell-based; conditions: Homo sapiens, MEXF 520L, 96 h
[17] = Cytotoxicity against LXF-1121L cells after 4 days by monolayer assay; assay type: functional, cell-based; conditions: Homo sapiens, 96 h
MEXF276L = experiment: Cytotoxicity against MEXF276L cells after 4 days by monolayer assay; assay type: functional, cell-based; conditions: Homo sapiens, 96 h
MEXF989 = experiment: Cytotoxicity against MEXF989 cells after 2 to 7 days by clonogenic assay; assay type: functional, cell-based; conditions: Homo sapiens, MEXF 989
PAXF736 = experiment: Cytotoxicity against PAXF736 cells after 2 to 7 days by clonogenic assay; assay type: functional, cell-based; conditions: Homo sapiens
[18] = Cytotoxicity against RXF468L cells after 4 days by monolayer assay; assay type: functional, cell-based; conditions: Homo sapiens, 96 h
[19] = Cytotoxicity against CXF158 cells after 2 to 7 days by clonogenic assay; assay type: functional, cell-based; conditions: Homo sapiens
[20] = Cytotoxicity against MAXF401 cells after 4 days by monolayer assay; assay type: functional, cell-based; conditions: Homo sapiens, MAXF401, 96 h
PAXF546 = experiment: Cytotoxicity against PAXF546 cells after 2 to 7 days by clonogenic assay; assay type: functional, cell-based; conditions: Homo sapiens

SMILES: C[C@@H]1CC(=O)[C@@H](O)[C@]2(O1)O[C@@H]1CC(=O)O[C@@H]1C1=C2C(=O)c2c(O)cccc2C1=O
- IC50 [1]: 140 nM
- IC50 (RXF 393 [2]): 95 nM
- IC50 [3]: 87 nM
- IC50 [4]: 95 nM
- IC50 [5]: 257 nM
- IC50 (MDA-MB-468): 150 nM
- IC50 (MDA-MB-231): 150 nM
- IC50 [6]: 87 nM
- IC50 [7]: 177 nM
- IC50 [8]: 455 nM
- IC50 [9]: 137 nM
- IC50 [10]: 290 nM
- IC50 [11]: 1190 nM
- IC50 [12]: 257 nM
- IC50 (RXF 393 [13]): 375 nM
- IC50 [14]: 195 nM
- IC50 (CCRF-CEM): 132 nM
- IC50 (MCF7): 150 nM
- IC50 [15]: 87 nM
- IC50 [16]: 87 nM
- IC50 [17]: 207 nM
- IC50 (MEXF276L): 87 nM
- IC50 (MEXF989): 295 nM
- IC50 (PAXF736): 614 nM
- IC50 [18]: 95 nM
- IC50 [19]: 257 nM
- IC50 [20]: 150 nM
- IC50 (PAXF546): 420 nM
